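Dose response: 5 concentrations. Exposure: 48 h. Format: 96-well plates. Endpoint: linear interpolation; highest concentration if not reached. At the GI50, growth is halved.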 Activity calls are given as the source filed them. Cut-off read from the data, not from the text of the source: active = GI50 up to about 1.1 µM and inactive = higher.
How the values were obtained:
Experiment in all cases: DTP human tumour cell line panel, 48 h
UACC-257 = system: UACC-257
OVCAR-4 = system: OVCAR-4
SF-295 = system: SF-295
SK-OV-3 = system: SK-OV-3
IGROV-1 = system: IGROV-1
RPMI-8226 = system: RPMI-8226
HCT-116 = system: HCT-116
HOP-92 = system: HOP-92
786-0 = system: 786-0
OVCAR-3 = system: OVCAR-3
KM12 = system: KM12
SK-MEL-28 = system: SK-MEL-28
NCI-H226 = system: NCI-H226
HT-29 = system: HT-29
RXF 393 = system: RXF 393
HOP-62 = system: HOP-62
HCT-15 = system: HCT-15
A498 = system: A498

Row | Structure (SMILES) | GI50 (UACC-257) | GI50 (OVCAR-4) | GI50 (SF-295) | GI50 (SK-OV-3) | GI50 (IGROV-1) | GI50 (RPMI-8226) | GI50 (HCT-116) | GI50 (HOP-92) | GI50 (786-0) | GI50 (OVCAR-3) | GI50 (KM12) | GI50 (SK-MEL-28) | GI50 (NCI-H226) | GI50 (HT-29) | GI50 (RXF 393) | GI50 (HOP-62) | GI50 (HCT-15) [µM] | GI50 (A498)
1 | CCCCCCCCCc1cc(=O)c2c(O)cccc2o1 | 36.3 µM (inactive) | 50.7 µM (inactive) | 46.3 µM (inactive) | > 100 µM (inactive) | 79.6 µM (inactive) | 38.2 µM (inactive) | 30.3 µM (inactive) | 57.5 µM (inactive) | 51.4 µM (inactive) | 75.9 µM (inactive) | 40.6 µM (inactive) | 55.6 µM (inactive) | 38.1 µM (inactive) | > 10 µM (inactive) | 53 µM (inactive) | > 100 µM (inactive) | 41.3 | –
2 | C[N+](C)(C)CC(=O)N/N=C/c1oc(-c2cccc([N+](=O)[O-])c2)c(-c2cccc([N+](=O)[O-])c2)c1[N+](=O)[O-] | > 100 µM (inactive) | > 100 µM (inactive) | – | > 100 µM (inactive) | 95.5 µM (inactive) | 21.7 µM (inactive) | 32.7 µM (inactive) | > 100 µM (inactive) | 48.1 µM (inactive) | – | – | 44.3 µM (inactive) | – | > 100 µM (inactive) | 76.9 µM (inactive) | > 100 µM (inactive) | – | > 100 µM (inactive)
3 | CCOC(=O)Nc1cc2nnc(-c3ccccc3)nc2c(N)n1 | 15.7 µM (inactive) | 14.9 µM (inactive) | 3.52 µM (inactive) | 2.45 µM (inactive) | 13.9 µM (inactive) | 24.3 µM (inactive) | 10.9 µM (inactive) | 13 µM (inactive) | 10.4 µM (inactive) | 6.43 µM (inactive) | 1.1 µM (active) | 16.2 µM (inactive) | 24 µM (inactive) | 6.07 µM (inactive) | 18 µM (inactive) | 17.3 µM (inactive) | 6.46 | –
4 | COc1cc(C2C(Cl)C(=O)N2NC(=O)c2ccc(N)cc2)cc(Br)c1O (centres undefined) | 19 µM (inactive) | 14.8 µM (inactive) | 14.6 µM (inactive) | 28.5 µM (inactive) | 19.7 µM (inactive) | 24.4 µM (inactive) | 10.4 µM (inactive) | 23 µM (inactive) | 13.3 µM (inactive) | 8.38 µM (inactive) | 16 µM (inactive) | 16.2 µM (inactive) | 21.5 µM (inactive) | 19.8 µM (inactive) | – | 15.1 µM (inactive) | 15 | 37.2 µM (inactive)
